Measurements from ChEMBL document CHEMBL1145654, “Phototoxic and Insecticidal Activities of Chromenes and Benzofurans from Encelia” (J Nat Prod, 1983).
The source made the active and inactive calls. No cut-off for these calls is given here.

Legend:
Type in all cases: functional, organism-based
Saccharomyces cerevisiae = assay: Phototoxicity in 2 hrs UV irradiated Saccharomyces cerevisiae measured after 24 hrs
Candida albicans = assay: Phototoxicity in 2 hrs UV irradiated Candida albicans measured after 24 hrs
Oncopeltus fasciatus [1] = assay: Antijuvenile hormone activity in first instar Oncopeltus fasciatus larvae at 5 mg to 100 ug/petri dish
Bacillus subtilis = assay: Phototoxicity in 2 hrs UV irradiated Bacillus subtilis measured after 24 hrs
Pseudomonas fluorescens = assay: Phototoxicity in 2 hrs UV irradiated Pseudomonas fluorescens measured after 24 hrs
Staphylococcus = assay: Phototoxicity in 2 hrs UV irradiated Staphylococcus albus measured after 24 hrs
Escherichia coli = assay: Phototoxicity in 2 hrs UV irradiated Escherichia coli measured after 24 hrs
Oncopeltus fasciatus [2] = assay: Insecticidal activity in first instar Oncopeltus fasciatus larvae at 5 mg/petri dish
Oncopeltus fasciatus [3] = assay: Insecticidal activity in first instar Oncopeltus fasciatus larvae at 1.2 mg/petri dish after 3 to 4 days

For `C=C(C)c1cc2cc(C(C)=O)c(O)cc2o1`, the Activity (Saccharomyces cerevisiae) was “inactive”, the Activity (Candida albicans) was “inactive” and the Activity (Oncopeltus fasciatus [1]) was “inactive”. For the same compound, the Activity (Bacillus subtilis) was “inactive”, the Activity (Pseudomonas fluorescens) was “inactive” and the Activity (Staphylococcus) was “inactive”. The Activity (Escherichia coli) was “inactive”.

For `COc1c2occc2cc2ccc(=O)oc12`, the Activity (Saccharomyces cerevisiae) was “Active”, the Activity (Candida albicans) was “Active” and the Activity (Bacillus subtilis) was “Active”. The Activity (Pseudomonas fluorescens) was “inactive”, the Activity (Staphylococcus) was “Active” and the Activity (Escherichia coli) was “Active”.

For `CC(=O)c1cc2c(cc1O)OC(C)(C)C=C2`, the Activity (Saccharomyces cerevisiae) was “Active”, the Activity (Oncopeltus fasciatus [2]) was “Active” and the Activity (Candida albicans) was “Active”. The Activity (Oncopeltus fasciatus [1]) was “inactive”, the Activity (Bacillus subtilis) was “Active” and the Activity (Pseudomonas fluorescens) was “inactive”. For the same compound, the Activity (Staphylococcus) was “inactive” and the Activity (Escherichia coli) was “inactive”.

With `COc1cc2c(cc1C(C)=O)C=CC(C)(C)O2` the Activity (Saccharomyces cerevisiae) was “Active”, the Activity (Oncopeltus fasciatus [3]) was “Active” and the Activity (Candida albicans) was “Active”. The Activity (Oncopeltus fasciatus [1]) was “inactive”, the Activity (Bacillus subtilis) was “Active” and the Activity (Pseudomonas fluorescens) was “inactive”. The Activity (Staphylococcus) was “inactive” and the Activity (Escherichia coli) was “inactive”.

With `C=C(C)c1cc2cc(C(C)=O)c(OC)cc2o1` the Activity (Saccharomyces cerevisiae) was “Active”, the Activity (Candida albicans) was “Active” and the Activity (Bacillus subtilis) was “Active”. For the same compound, the Activity (Pseudomonas fluorescens) was “Active”, the Activity (Staphylococcus) was “inactive” and the Activity (Escherichia coli) was “inactive”.

`COc1cc2c(cc1OC)OC(C)(C)C=C2` was tested, and the Activity (Saccharomyces cerevisiae) was “inactive”, the Activity (Candida albicans) was “inactive” and the Activity (Oncopeltus fasciatus [1]) was “inactive”. The Activity (Bacillus subtilis) was “inactive”, the Activity (Pseudomonas fluorescens) was “inactive” and the Activity (Staphylococcus) was “inactive”. The Activity (Escherichia coli) was “inactive”.

For `COc1cc2c(cc1[C@](C)(O)CC(C)c1cc3cc(C(C)=O)c(O)cc3o1)C=CC(C)(C)O2` (stereo not given in full), the Activity (Saccharomyces cerevisiae) was “inactive”, the Activity (Candida albicans) was “inactive” and the Activity (Bacillus subtilis) was “inactive”. The Activity (Pseudomonas fluorescens) was “inactive”, the Activity (Staphylococcus) was “inactive” and the Activity (Escherichia coli) was “inactive”.

With `COc1ccc2c(c1)OC(C)(C)C=C2` the Activity (Saccharomyces cerevisiae) was “inactive”, the Activity (Candida albicans) was “inactive” and the Activity (Oncopeltus fasciatus [1]) was “inactive”. For the same compound, the Activity (Bacillus subtilis) was “inactive”, the Activity (Pseudomonas fluorescens) was “inactive” and the Activity (Staphylococcus) was “inactive”. The Activity (Escherichia coli) was “inactive”.
